# Like-named read-outs stand apart in the source and are kept apart here.
# Experiments:
# adult S. japonicum = assay: microbe, parasite or virus in culture; type: cell-based; details: for killing at 25 µM / killing at 50 µM / killing at 100 µM / mortality at 25 µM: Schistosoma japonicum; for mortality at 25 µM: read-out: Mortality of adult worms
# Source text: ICR mice (20–22 g), were obtained from the Shanghai Sub-Center of Experimental Animals, Chinese Academy of Sciences. They were maintained at the Department of Experimental Animals, Jiangsu Institute of Parasitic Diseases. To infect each mouse, its abdominal skin was exposed to 50 S. japonica cercariae. All of the mice were executed to collect S. japonica adult worms, through portal vein perfusion, 35 days post-infection. The adult S. japonica collected were washed with RPMI 1640 medium and then kept in RPMI 1640 medium (pH 7.5) with HEPES 20 mM, penicillin (100 IU/mL), streptomycin ([…]) and 10 % fetal bovine serum. Then, two pairs of adult worms were transferred into each well of a 24-well culture plate, with 2 mL of the same medium. The worms were cultured at 37 °C in a humid atmosphere with 5 % CO2.
# Adult worms were cultured in a 24-well culture plate for 30–60 min at 37 °C, in a humid atmosphere with 5 % CO2. Then, oxadiazole-2-oxides at different concentrations (10, 25, 50, 100 μM) were added. Equal volumes of RPMI 1640 or DMSO were applied as negative controls, while PZQ was applied as a positive control. The adult worm mobility and parasite survival rates were monitored using an inverted phase contrast microscope, at 24, 48 and 72 h. Parasite death was defined as there being no motor activity during 2 min of continuous observation, and morphological and tegumental alterations. All assays were repeated three times.
# ^b Data collected by visual examination of worm movement and shape; n.e. […] The data presented are the average of three independent experiments.
# recombinant SjTGR = molecular target: T1, recombinant SjTGR (Schistosoma japonicum, UniProt B5THG7); assay: Inhibition of TrxR activity of recombinant SjTGR (DTNB assay); type: biochemical; details: 50 nM SjTGR, 1 mM NADPH, 15 min preincubation, DTNB reduction; for IC50: read-out: IC50 of SjTGR
# T1 sequence (B5THG7 1-596): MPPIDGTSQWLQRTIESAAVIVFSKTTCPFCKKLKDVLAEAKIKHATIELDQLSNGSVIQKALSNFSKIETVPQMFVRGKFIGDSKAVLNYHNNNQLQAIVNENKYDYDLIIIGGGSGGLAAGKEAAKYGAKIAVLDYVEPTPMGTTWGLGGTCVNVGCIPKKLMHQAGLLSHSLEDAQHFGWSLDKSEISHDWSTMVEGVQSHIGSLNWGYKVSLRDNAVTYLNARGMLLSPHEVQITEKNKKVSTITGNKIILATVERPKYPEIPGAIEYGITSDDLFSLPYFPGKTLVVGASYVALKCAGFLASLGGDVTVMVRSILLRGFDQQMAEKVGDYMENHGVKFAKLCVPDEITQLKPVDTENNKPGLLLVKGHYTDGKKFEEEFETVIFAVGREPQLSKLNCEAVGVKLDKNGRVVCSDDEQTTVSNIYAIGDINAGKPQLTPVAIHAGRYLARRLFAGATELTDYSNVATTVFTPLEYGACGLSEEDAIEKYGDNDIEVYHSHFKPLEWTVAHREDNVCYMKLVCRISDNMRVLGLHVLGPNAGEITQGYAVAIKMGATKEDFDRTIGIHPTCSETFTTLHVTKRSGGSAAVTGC
# Experimental: The purified recombinant SjTGR proteins were produced according to the method described by Song et al.. The inhibition of TrxR activity by the recombinant SjTGR was performed as reported by Rai et al.. Briefly, 50 nM SjTGR and 1 mM NADPH were incubated with different concentrations of oxadiazole-2-oxides (2, 4, 6, 10, 20 μM) for 15 min at room temperature. Then, potassium phosphate buffer (pH 7.4) containing 10 mM EDTA, 100 μM NADPH, and 3 mM DTNB was added to start the reaction. The increase of absorbance at 412 nm was monitored during the first 2 min. All assays were done in triplicate.
# 50 nM SjTGR and 1 mM NADPH were incubated with different concentrations of oxadiazole-2-oxides (2, 4, 6, 10, 20 μM) for 15 min at room temperature. Then, potassium phosphate buffer (pH 7.4) containing 10 mM EDTA, 100 μM NADPH, 3 mM DTNB was added to start the reaction. The increase in absorbance at 412 nm was monitored during the first 2 min. All assays were done in triplicate. Results shown are the mean ± SD (n = 3)
# juvenile S. japonicum = assay: microbe, parasite or virus in culture; type: cell-based; details: for Killing activity 24hr / Killing activity 48hr / Killing activity 72hr: 10 μM
# Experimental: Infected Oncomelania hupensis, provided by the Department of Snail Biology, Jiangsu Institute of Parasitic Diseases, were incubated at 25–28 °C, under illumination, for 2 h to hatch S. japonicum cercariae. The cercariae were collected from the water surface with clean cover glass and placed into a centrifuge tube using pre cooled RPMI 1640. Centrifugation was performed for 1 min at 1500 rpm, and then the steps above were repeated. After centrifugation, the supernatant solution was removed. The cercariae at the bottom were washed twice and resuspended with RPMI 1640. Approximately 20–30 cercariae (1 mL of the resuspension medium) were added to one well in a 24-well culture plate. They were incubated overnight at 37 °C with 5 % CO2. The survival rates and number of tails shed were observed under an inverted microscope. Cercariae that had shed their tails were used as juvenile S. japonicum.
# 20–30 juvenile worms were transferred into each well of a 24-well culture plate, containing 2 mL RPMI 1640 medium, 20 mM HEPES, 100 IU/mL penicillin, […] streptomycin and 10 % fetal bovine serum. Then, oxadiazole-2-oxides (2, 5, 10, and 50 μM), diluted with the RPMI 1640 medium, were added to their allocated wells. The worms in the negative control wells were treated with equal volumes of RPMI 1640 or DMSO and worms treated with AS were observed as positive controls. The juvenile worms’ survival rates were observed under an inverted phase contrast microscope (Leica, Wetzlar, Germany) at 24, 48 and 72 h. Parasite death was defined as an unclear internal structure of the juvenile worms, with incomplete tegument and contents overflowing radially, or unclear internal structure with complete tegument, but having no motor activity during 1 min of continuous observation. All assays were repeated three times.
# ^b Data collected by visual examination of worm movement and shape; % D = The number of worms dead / The total number of worms observed, and worms dead judged by unclear internal structure of juvenile worms with uncompleted tegument, and contents overflowing radially, or unclear internal structure with complete tegument, but having no motor activity during 1 min of continuous observation. The data presented are the average of three independent experiments.
# [1] = 24 h, read-out: Killing activity 24hr
# [2] = 48 h, read-out: Killing activity 48hr
# [3] = 72 h, read-out: Killing activity 72hr
# [4] = Schistosoma japonicum, 24 h, read-out: Killing activity 24hr
# [5] = Schistosoma japonicum, 48 h, read-out: Killing activity 48hr
# [6] = Schistosoma japonicum, 72 h, read-out: Killing activity 72hr
compound,measurement,setting,value
N#Cc1c(-c2ccc(OCC(=O)c3ccccc3)cc2)no[n+]1[O-] [Compound 17],killing at 25 µM,"adult S. japonicum; adult worms, 25 μM, 72 h, read-out: Killing activity 72hr",62.5%
same,killing at 50 µM,"adult S. japonicum; adult worms, 50 μM, 48 h, read-out: Killing activity 48hr",40%
same,killing at 50 µM,"adult S. japonicum; adult worms, 50 μM, 72 h, read-out: Killing activity 72hr",87.5%
same,killing at 100 µM,"adult S. japonicum; adult worms, 100 μM, 48 h, read-out: Killing activity 48hr",57.1%
same,killing at 100 µM,"adult S. japonicum; adult worms, 100 μM, 72 h, read-out: Killing activity 72hr",85.7%
same,Killing activity 24hr,"adult S. japonicum; adult worms, 10 μM, 24 h",n.e.
same,Killing activity 48hr,"adult S. japonicum; adult worms, 10 μM, 48 h",n.e.
same,Killing activity 72hr,"adult S. japonicum; adult worms, 10 μM, 72 h",50.0%D
same,Killing activity 24hr,"adult S. japonicum; adult worms, 25 μM, 24 h",n.e.
same,Killing activity 48hr,"adult S. japonicum; adult worms, 25 μM, 48 h",n.e.
same,Killing activity 24hr,"adult S. japonicum; adult worms, 50 μM, 24 h",n.e.
same,Killing activity 24hr,"adult S. japonicum; adult worms, 100 μM, 24 h",sluggish
same,Mortality of adult worms,"adult S. japonicum; adult worms, 100 μM, 24 h",did not cause death
same,IC50 of SjTGR,recombinant SjTGR,did not inhibit
same,IC50,recombinant SjTGR,> 20 µM
same,mortality at 50 µM,"juvenile S. japonicum; Schistosoma japonicum, 24 h, read-out: Mortality of juvenile worms",< 30%
same,killing at 2 µM,"juvenile S. japonicum; Schistosoma japonicum, juvenile worms, 2 μM, 24 h, read-out: Killing activity 24hr",28.1%
same,killing at 2 µM,"juvenile S. japonicum; Schistosoma japonicum, juvenile worms, 2 μM, 48 h, read-out: Killing activity 48hr",37.5%
same,killing at 2 µM,"juvenile S. japonicum; Schistosoma japonicum, juvenile worms, 2 μM, 72 h, read-out: Killing activity 72hr",46.9%
same,killing at 5 µM,"juvenile S. japonicum; Schistosoma japonicum, juvenile worms, 5 μM, 24 h, read-out: Killing activity 24hr",29.2%
same,killing at 5 µM,"juvenile S. japonicum; Schistosoma japonicum, juvenile worms, 5 μM, 48 h, read-out: Killing activity 48hr",41.7%
same,killing at 5 µM,"juvenile S. japonicum; Schistosoma japonicum, juvenile worms, 5 μM, 72 h, read-out: Killing activity 72hr",50%
same,killing at 50 µM,"juvenile S. japonicum; Schistosoma japonicum, juvenile worms, 50 μM, 24 h, read-out: Killing activity 24hr",45.8%
same,killing at 50 µM,"juvenile S. japonicum; Schistosoma japonicum, juvenile worms, 50 μM, 48 h, read-out: Killing activity 48hr",60.4%
same,killing at 50 µM,"juvenile S. japonicum; Schistosoma japonicum, juvenile worms, 50 μM, 72 h, read-out: Killing activity 72hr",72.9%
same,Killing activity 24hr,"juvenile S. japonicum; juvenile worms, 24 h",40.0%D
same,Killing activity 48hr,"juvenile S. japonicum; juvenile worms, 48 h",48.6%D
same,Killing activity 72hr,"juvenile S. japonicum; juvenile worms, 72 h",54.3%D
CC(C)CCOc1ccc(-c2no[n+]([O-])c2C#N)cc1 [Compound 18],killing at 25 µM,adult S. japonicum; [1],75%
same,killing at 50 µM,adult S. japonicum; [1],100%
same,killing at 100 µM,adult S. japonicum; [1],100%
same,mortality at 25 µM,adult S. japonicum; 24 h,> 75%
same,killing at 25 µM,adult S. japonicum; [2],87.5%
same,killing at 50 µM,adult S. japonicum; [2],100%
same,killing at 100 µM,adult S. japonicum; [2],100%
same,killing at 25 µM,adult S. japonicum; [3],100%
same,killing at 50 µM,adult S. japonicum; [3],100%
same,killing at 100 µM,adult S. japonicum; [3],100%
same,mortality at 25 µM,adult S. japonicum; 72 h,100%
same,Killing activity 24hr,"adult S. japonicum; adult worms, 10 μM, 24 h",16.7%D
same,Killing activity 48hr,"adult S. japonicum; adult worms, 10 μM, 48 h",16.7%D
same,Killing activity 72hr,"adult S. japonicum; adult worms, 10 μM, 72 h",50.0%D
same,IC50 of SjTGR,recombinant SjTGR,did not inhibit SjTGR
same,IC50,recombinant SjTGR,> 20 µM
same,killing at 2 µM,juvenile S. japonicum; [4],24.1%
same,killing at 5 µM,juvenile S. japonicum; [4],33.8%
same,killing at 50 µM,juvenile S. japonicum; [4],52.4%
same,killing at 2 µM,juvenile S. japonicum; [5],29.9%
same,killing at 5 µM,juvenile S. japonicum; [5],40%
same,killing at 50 µM,juvenile S. japonicum; [5],88.1%
same,killing at 2 µM,juvenile S. japonicum; [6],35.6%
same,killing at 5 µM,juvenile S. japonicum; [6],47.5%
same,killing at 50 µM,juvenile S. japonicum; [6],100%
same,Killing activity 24hr,"juvenile S. japonicum; juvenile worms, 24 h",36.6%D
same,Killing activity 48hr,"juvenile S. japonicum; juvenile worms, 48 h",42.7%D
same,Killing activity 72hr,"juvenile S. japonicum; juvenile worms, 72 h",42.7%D

# — PMC4721062, “Oxadiazole-2-oxides may have other functional targets, in addition to SjTGR, through which they cause mortality in Schistosoma japonicum” (Parasites & Vectors, 2016)
